{
  "source": "paper PMC11091117",
  "about": "“A fluorescently-tagged tick kinin neuropeptide triggers peristalsis and labels tick midgut muscles” (Scientific Reports, 2024)",
  "key": {"[1]": {"tested_on": "vector-only (V/O) CHO-K1 cells", "assay": "Confocal visualization on live vector-only cells with fluorescently labeled kinin peptide", "type": "binding", "conditions": "10 µM labeled peptide, 1 min, HBSS, confocal Leica SP8", "description": "Three peptides were used in this study. These included: 1) the ligand for the endogenous tick kinin receptor from Rhipicephalus sanguineus, Rhisa-kinin 8 peptide of sequence GTGEDQAFSPWGamide (Rhisa-K-8; RK8; of identical sequence to Rhimi-K-8 in Rhipicephalus microplus)[48], 2) the same peptide but fluorescently labeled at the N-terminus with tetramethylrhodamine (TMR) a red fluorescent dye, designated TMR-Rhisa-K-8 (TMR-RK8), and 3) a labeled peptide synthesized with the scrambled sequence of the kinin ligand, designated TMR-Scrambled. The sequence of TMR-RK8 was TMR-C-GTGEDQAFSPWGamide). The TMR-Scrambled kinin (TMR-C-GTQWGPGFEADSamide) served as a negative control for tissue labeling. […]\nThe BMLK3 and V/O cells (5000–10,000 cells) were seeded separately in 200 µL selective media onto the two chambers of the cover glass (Lab-Tek Chambered Coverglass, 4.2 cm^2 area, #1.0 German borosilicate glass, sterile, Cat # 155,380, Thermo Fisher Scientific Inc., Walthams, MA) and grown in the incubator overnight at 37 °C and 5% CO2. The next day, cells would be ready for fluorescent labeling: the selective media was replaced with 200 µL HBSS to rinse the cells. […] Images were analyzed and computer-colored using Fiji/ImageJ (National Institutes of Health, Bethesda, MD). […]"}, "[2]": {"tested_on": "tick kinin receptor in midgut muscles", "assay": "Fluorescent labeling of live midgut ex vivo, confocal microscopy", "type": "binding, Rhipicephalus sanguineus", "conditions": "10 µM labeled peptide, 1 min", "description": "Three peptides were used in this study. These included: 1) the ligand for the endogenous tick kinin receptor from Rhipicephalus sanguineus, Rhisa-kinin 8 peptide of sequence GTGEDQAFSPWGamide (Rhisa-K-8; RK8; of identical sequence to Rhimi-K-8 in Rhipicephalus microplus)[48], 2) the same peptide but fluorescently labeled at the N-terminus with tetramethylrhodamine (TMR) a red fluorescent dye, designated TMR-Rhisa-K-8 (TMR-RK8), and 3) a labeled peptide synthesized with the scrambled sequence of the kinin ligand, designated TMR-Scrambled. The sequence of TMR-RK8 was TMR-C-GTGEDQAFSPWGamide). The TMR-Scrambled kinin (TMR-C-GTQWGPGFEADSamide) served as a negative control for tissue labeling. All peptides were custom-synthesized and purchased from GenScript (Piscataway, NJ, USA) with a purity of ≥ 95% and the cysteine in bold in both sequences was added to attach the label. Experiments were replicated with independently synthesized batches (4 mg each) of labeled and unlabeled peptides, for reproducibility. Unlabeled RK8 was used as a competitive ligand to verify target-specific binding of the labeled TMR-RK8 (see Ligand Competition Assay). For cell assays, the peptide stock solutions (100 µM) were made in 1% dimethyl sulfoxide (DMSO) in Hank’s balanced salt solution (HBSS, Thermo Fisher, Waltham, USA). For fluorescent cell labeling, peptide working solutions (10 µM) were prepared in HBSS from stock solutions. For assays on the midgut, peptides were solubilized and diluted in a tick physiological saline consisting of 140 mM NaCl, 5 mM KCl, 1 mM MgCl2, 5 mM CaCl2, 4 mM NaHCO3, and 5 mM HEPES, pH 7.2[49].\n(§1) Individual female ticks were immobilized on a Petri dish filled with wax by submerging their legs in melted wax heated with a soldering pencil (Electronic Control Soldering Station EC 1000, Weller, Apex, North Carolina, USA). Females were dissected under physiological saline following the protocol described by Tidwell et al.[51]. The tick was cut along the edge of the scutum/alloscutum using a stainless steel #12 scalpel blade (Integra Miltex, York, PA, USA), after which the scutum was removed with a pair of fine forceps. To expose the midgut for removal, the tracheae, Malpighian tubules, ovaries, rectal sac, and synganglion were removed with fine forceps in that order. The midgut was then carefully removed and placed into 200 µL of fresh tick saline (See Reagents and Peptides) on a single gasketed incubation chamber (500 µL, Size 22 × 40 mm, Electron Microscopy Sciences, Hatfield, PA). The midguts were then rinsed three times with the physiological tick saline for subsequent fluorescent labeling or activity experiments.\nTo determine the location of the tick kinin receptor in the midgut of ticks, a commercially synthesized Rhisa-kinin peptide 8[52] conjugated with a stable, red fluorophore (TMR-RK8) or a similarly labeled peptide of scrambled sequence (TMR-Scrambled) were applied to freshly dissected midguts ex vivo. For this, midguts of unfed adult females were incubated in ice-cold saline for 10 min. The saline was removed before incubation in 200 µL of 4’,6-diamidino-2-phenylindole dihydrochloride (DAPI, Sigma, 1 µg/mL in saline) for 1 min and rinsed with saline (200 µL) once. After saline removal, the midgut was incubated for 1 min with 200 µL of 10 µM of either TMR-Scrambled kinin or TMR-RK8, then the labeled peptide solution was removed by pipette and the midgut was rinsed twice with 200 µL saline. […]"}, "tick midgut": {"tested_on": "tick midgut", "assay": "Tick midgut contraction assay with EthoVision video analysis", "parameters": "species or system Rhipicephalus sanguineus", "description": "as §1\nMidguts were dissected from immobilized female ticks under tick saline, as described under the Midgut Dissection. Ten different midguts were used for each of the two treatments, and ticks were of the same age and batch and had been maintained under the same conditions. Dissected midguts were placed individually into 200 µL of tick saline for 10 min at 28 °C on a gasketed glass coverslip (500 µL, Size 22 × 40 mm) serving as incubation chamber. […] After the final wash and removal of saline, 200 µL of saline were added, and a microscopy coverslip (24 × 60 mm, VWR, Radnor, PA) was placed over the gasketed portion of the incubation chamber, which height (0.5 mm) fits to prevent the midgut from floating, but still allows midgut peristalsis. The midguts were observed and filmed under a dissecting microscope (Olympus SZ61, Japan) equipped with an Infinity 5 camera (Teledyne Lumenera, Ottawa, ON, Canada). All videos were recorded for 1 min with the INFINITY ANALYZE 7 software (Teledyne Lumenera) at 30 frames/second with a 2464 × 2056 resolution. The field of view in all videos recorded represents 4 × 3.5 mm to capture the entire tick midguts under saline. All video files in Windows Media Video (.wmv) format obtained from the Infinity Analyze 7 software were converted to the MP4 format using CloudConvert (cloudconvert.com, Lunaweb, Munich, Germany) for analyses with the EthoVision XT 17 software (Noldus Information Technology, Wageningen, The Netherlands).\nWe used the EthoVision 17 XT software to quantify the “activity” (pixel change) of the midguts from the videos recorded. This software defines activity as the percentage of pixels that have changed in the entire defined arena between the current image and previous image. The videos are recorded in 2464 × 2056 resolution and the arena is set to be the entire video screen. Video files were uploaded into the program and analyzed starting from time zero to the end of the 60 s video. Detection settings for activity included the activity threshold which was set to 5 to achieve zero detection when the midgut was immobile. Although the video captured 30 frames (images) per s, for the video analysis we chose a “sample rate” of 7 samples /s, with sample rate being the number of images from the video the EthoVision program analyzes per second. To calculate activity, each pixel of the video image was compared from one image to the next, and the proportion of pixel changes was calculated by dividing the number of pixels changed from one image to the next by the total number of pixels in the image. Care was given for the midgut to occupy most of the arena, as the activity analyses will reflect the midgut movement as a proportion of the total arena. Midgut activity is observed as pixel changes, which are represented by the red-colored pixels in the S4 video. The mean pixel change per midgut was then determined by averaging the pixel changes from all samples within the recording period. […]"}},
  "note": "Entries after “also recorded” stand apart in the source; their conditions may differ.",
  "data": [
    {"substance": "TMR-C-GTQWGPGFEADSamide [TMR-Scrambled]", "values": [
      {"measurement": "labeling of vector-only cells (in words)", "setting": "[1]", "result": "not labeled by either peptide"},
      {"measurement": "non-specific labeling below midgut surface (in words)", "setting": "[2]; midguts ex vivo, Z-slices under the surface", "result": "non-specific aggregation in lipid vesicles beneath the midgut surface; also recorded: non-specific labeling observed in lipid vesicles inside the midgut"},
      {"measurement": "labeling of midgut surface muscles (in words)", "setting": "[2]; tick saline pH 7.2, midguts of unfed females ex vivo, DAPI and Alexa 488-phalloidin, confocal 20X/40X", "result": "did not significantly bind to the surface of the tick midgut; also recorded: did not show specific binding to the midgut of ticks; also recorded: specific muscle surface staining was not observed; also recorded: No signal; also recorded: grid-like fluorescent pattern was not observed"},
      {"measurement": "midgut contractions, S5 Video (in words)", "setting": "tick midgut; 1 µM TMR-Scrambled, after 10 min of exposure, 4X speed", "result": "did not induce contractions"},
      {"measurement": "midgut peristalsis/contractions (in words)", "setting": "tick midgut; 10 µM, 1 min, 28 °C, midguts of unfed females ex vivo, video recorded 1 min", "result": "did not elicit peristalsis; also recorded: low to imperceptible activity; also recorded: did not display significant activity"},
      {"measurement": "mean activity (mean pixel change, percentage of pixels changed in arena)", "setting": "tick midgut; 10 µM, 1 min, rinsed twice, 28 °C, tick saline, 60 s video, 7 samples/s, EthoVision XT 17, activity threshold 5, N = 10 midguts", "result": "less than 0.1%"}
    ]}
  ]
}
